The nature of assay [1]: Inhibition of rifamycin-resistant Mycobacterium tuberculosis RNA polymerase H445Y mutant after 10 mins by rolling circle transcription assay in presence of DNA nanocircle template NC45.
Assay [2] in a line: Inhibition of rifamycin-resistant Mycobacterium tuberculosis RNA polymerase S450L mutant after 10 mins by rolling circle transcription assay in presence of DNA nanocircle template NC45.
Assay [3] is described as follows: Inhibition of rifamycin-resistant Mycobacterium tuberculosis RNA polymerase D435V mutant after 10 mins by rolling circle transcription assay in presence of DNA nanocircle template NC45.

Data on one molecule can be found in ChEMBL document CHEMBL2380284, “X-ray crystal structures of the Escherichia coli RNA polymerase in complex with benzoxazinorifamycins” (J Med Chem, 2013).

The structures appear in SMILES notation.

Regarding `CO[C@H]1/C=C/O[C@@]2(C)Oc3c(C)c(O)c4c(O)c(c(/C=N/N5CCN(C)CC5)c(O)c4c3C2=O)NC(=O)/C(C)=C\C=C\[C@H](C)[C@H](O)[C@@H](C)[C@@H](O)[C@@H](C)[C@H](OC(C)=O)[C@@H]1C` [RIFAMPIN], the IC50 was 610 µM in assay [1], 109 µM in assay [2] and 465 µM in assay [3].

By IC50 is commonly meant the concentration at which inhibition is half-maximal.
